Data as given in ChEMBL document CHEMBL1764947, “Symmetric double-headed aminopyridines, a novel strategy for potent and membrane-permeable inhibitors of neuronal nitric oxide synthase” (J Med Chem, 2011).

Assays:
[1] = biological target: T1, Nitric oxide synthase, inducible (Mus musculus, UniProt P29477); experiment: Inhibition of mouse macrophage recombinant iNOS expressed in Escherichia coli by UV-vis spectrometric analysis
T1 sequence (P29477 whole entry): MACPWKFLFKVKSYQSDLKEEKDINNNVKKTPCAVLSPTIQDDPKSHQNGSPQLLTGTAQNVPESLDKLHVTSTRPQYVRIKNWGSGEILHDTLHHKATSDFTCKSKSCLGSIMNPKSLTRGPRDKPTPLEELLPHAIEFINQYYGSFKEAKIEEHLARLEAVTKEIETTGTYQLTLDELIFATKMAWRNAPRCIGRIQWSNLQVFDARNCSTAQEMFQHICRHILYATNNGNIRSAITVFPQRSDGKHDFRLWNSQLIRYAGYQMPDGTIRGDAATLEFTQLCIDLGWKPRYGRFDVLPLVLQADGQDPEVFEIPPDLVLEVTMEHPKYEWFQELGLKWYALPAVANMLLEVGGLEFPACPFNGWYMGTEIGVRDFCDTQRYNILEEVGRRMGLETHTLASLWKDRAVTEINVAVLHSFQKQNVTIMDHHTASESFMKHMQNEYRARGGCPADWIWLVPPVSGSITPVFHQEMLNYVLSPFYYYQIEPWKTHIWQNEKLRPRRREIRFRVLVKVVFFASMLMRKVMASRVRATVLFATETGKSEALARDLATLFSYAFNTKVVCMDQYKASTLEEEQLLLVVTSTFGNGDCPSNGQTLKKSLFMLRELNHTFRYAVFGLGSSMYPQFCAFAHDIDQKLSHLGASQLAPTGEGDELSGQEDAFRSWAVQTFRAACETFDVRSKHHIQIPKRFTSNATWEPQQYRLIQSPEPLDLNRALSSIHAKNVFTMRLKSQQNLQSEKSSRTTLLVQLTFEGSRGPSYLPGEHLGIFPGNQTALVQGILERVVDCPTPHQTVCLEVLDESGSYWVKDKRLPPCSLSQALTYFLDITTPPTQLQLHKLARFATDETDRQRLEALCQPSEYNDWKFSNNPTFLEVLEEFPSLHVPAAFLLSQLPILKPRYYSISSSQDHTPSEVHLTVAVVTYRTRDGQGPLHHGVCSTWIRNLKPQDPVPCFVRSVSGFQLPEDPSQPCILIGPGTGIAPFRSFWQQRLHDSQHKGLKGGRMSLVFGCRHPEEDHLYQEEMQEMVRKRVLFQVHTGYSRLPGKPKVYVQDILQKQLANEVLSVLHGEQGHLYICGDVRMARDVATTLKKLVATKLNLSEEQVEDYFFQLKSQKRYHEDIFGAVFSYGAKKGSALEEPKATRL

Nitric oxide synthase 1 = Nitric oxide synthase 1 (Rattus norvegicus, UniProt P29476); experiment: Inhibition of rat recombinant nNOS expressed in Escherichia coli by UV-vis spectrometric analysis
Sequence of Nitric oxide synthase 1 (P29476 whole entry): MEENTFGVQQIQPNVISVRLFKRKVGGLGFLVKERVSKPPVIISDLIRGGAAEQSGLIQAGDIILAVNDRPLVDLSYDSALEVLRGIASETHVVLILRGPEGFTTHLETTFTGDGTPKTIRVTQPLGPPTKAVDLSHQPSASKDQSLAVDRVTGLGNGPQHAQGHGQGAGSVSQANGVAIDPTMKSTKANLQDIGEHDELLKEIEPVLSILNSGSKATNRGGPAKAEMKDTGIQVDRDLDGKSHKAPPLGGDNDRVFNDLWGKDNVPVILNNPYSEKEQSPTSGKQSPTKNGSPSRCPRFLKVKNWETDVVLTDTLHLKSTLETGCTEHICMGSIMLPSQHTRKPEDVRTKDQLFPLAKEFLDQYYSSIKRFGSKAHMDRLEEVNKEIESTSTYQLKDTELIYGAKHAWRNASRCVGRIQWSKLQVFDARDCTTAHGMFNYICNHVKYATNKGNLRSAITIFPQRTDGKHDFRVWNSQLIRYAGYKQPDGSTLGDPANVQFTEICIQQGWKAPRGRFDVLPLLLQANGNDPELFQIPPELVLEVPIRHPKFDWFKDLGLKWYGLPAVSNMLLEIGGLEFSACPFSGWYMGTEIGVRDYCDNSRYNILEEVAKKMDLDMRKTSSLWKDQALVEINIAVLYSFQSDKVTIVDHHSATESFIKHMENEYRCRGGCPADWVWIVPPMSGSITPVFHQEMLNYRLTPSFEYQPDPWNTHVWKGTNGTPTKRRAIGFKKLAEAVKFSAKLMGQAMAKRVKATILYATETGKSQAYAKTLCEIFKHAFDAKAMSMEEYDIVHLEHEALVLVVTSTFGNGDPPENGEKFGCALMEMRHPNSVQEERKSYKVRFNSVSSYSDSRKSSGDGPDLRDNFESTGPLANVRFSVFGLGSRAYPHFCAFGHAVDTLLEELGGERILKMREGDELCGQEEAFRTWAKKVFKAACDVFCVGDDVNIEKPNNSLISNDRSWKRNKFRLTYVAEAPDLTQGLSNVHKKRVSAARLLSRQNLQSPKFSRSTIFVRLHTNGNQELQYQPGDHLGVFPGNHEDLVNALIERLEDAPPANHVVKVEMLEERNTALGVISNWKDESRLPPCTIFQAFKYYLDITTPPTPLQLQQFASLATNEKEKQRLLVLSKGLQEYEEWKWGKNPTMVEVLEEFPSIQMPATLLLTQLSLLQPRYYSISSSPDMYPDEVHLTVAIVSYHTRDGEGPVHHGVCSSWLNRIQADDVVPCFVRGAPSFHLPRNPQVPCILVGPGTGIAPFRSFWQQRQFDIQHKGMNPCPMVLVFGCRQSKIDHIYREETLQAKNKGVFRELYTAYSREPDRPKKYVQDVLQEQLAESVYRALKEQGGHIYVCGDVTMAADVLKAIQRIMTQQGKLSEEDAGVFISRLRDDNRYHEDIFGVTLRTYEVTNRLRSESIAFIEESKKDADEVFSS

Nitric oxide synthase 3 = biological target: T2, Nitric oxide synthase 3 (Bos taurus, UniProt P29473); experiment: Inhibition of bovine recombinant eNOS expressed in Escherichia coli by UV-vis spectrometric analysis
T2 sequence (P29473 whole entry): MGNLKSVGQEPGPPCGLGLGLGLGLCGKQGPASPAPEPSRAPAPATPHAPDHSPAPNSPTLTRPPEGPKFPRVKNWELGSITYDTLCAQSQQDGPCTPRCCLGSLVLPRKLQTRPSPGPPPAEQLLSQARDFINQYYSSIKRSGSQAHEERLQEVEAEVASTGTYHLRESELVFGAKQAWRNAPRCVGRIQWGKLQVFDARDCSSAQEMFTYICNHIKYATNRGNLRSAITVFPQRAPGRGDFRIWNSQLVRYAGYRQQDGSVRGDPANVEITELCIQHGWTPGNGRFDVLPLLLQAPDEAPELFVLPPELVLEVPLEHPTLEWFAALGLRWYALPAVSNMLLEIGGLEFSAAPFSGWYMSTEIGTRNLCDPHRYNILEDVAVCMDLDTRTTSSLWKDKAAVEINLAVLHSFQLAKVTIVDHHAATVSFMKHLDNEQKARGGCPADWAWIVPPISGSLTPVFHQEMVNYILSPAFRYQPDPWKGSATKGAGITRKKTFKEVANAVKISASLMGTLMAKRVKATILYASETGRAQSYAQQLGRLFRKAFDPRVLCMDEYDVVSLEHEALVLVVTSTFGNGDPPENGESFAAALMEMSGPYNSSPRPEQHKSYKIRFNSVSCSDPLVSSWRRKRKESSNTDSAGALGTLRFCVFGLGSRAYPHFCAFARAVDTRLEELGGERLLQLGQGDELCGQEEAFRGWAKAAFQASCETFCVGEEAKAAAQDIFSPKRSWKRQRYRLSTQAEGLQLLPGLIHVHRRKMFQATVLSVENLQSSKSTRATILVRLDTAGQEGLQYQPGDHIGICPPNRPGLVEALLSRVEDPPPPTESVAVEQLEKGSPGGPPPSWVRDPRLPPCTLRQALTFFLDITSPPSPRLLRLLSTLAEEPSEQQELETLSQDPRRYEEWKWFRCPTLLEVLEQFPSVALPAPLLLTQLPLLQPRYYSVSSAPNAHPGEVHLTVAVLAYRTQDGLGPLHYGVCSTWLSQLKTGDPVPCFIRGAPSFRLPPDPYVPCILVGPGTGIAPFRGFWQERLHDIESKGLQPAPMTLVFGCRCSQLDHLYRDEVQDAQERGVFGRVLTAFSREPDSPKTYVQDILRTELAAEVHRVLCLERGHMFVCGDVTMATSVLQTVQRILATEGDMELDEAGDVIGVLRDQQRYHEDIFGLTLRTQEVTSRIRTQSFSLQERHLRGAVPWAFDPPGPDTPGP

[2] = Selectivity ratio of Ki for murine macrophage recombinant iNOS to Ki for rat recombinant nNOS
[3] = Selectivity ratio of Ki for bovine recombinant eNOS to Ki for rat recombinant nNOS

## Cc1cc(N)nc(CCc2cccc(CCc3cc(C)nc(N)c3)n2)c1
[1]
  Ki: 12.6 µM
Nitric oxide synthase 1
  Ki: 0.195 µM
Nitric oxide synthase 3
  Ki: 20 µM

## Cc1cc(N)nc(CCc2cncc(CCc3cc(C)nc(N)c3)c2)c1
[2]
  Ratio Ki: 19
[3]
  Ratio Ki: 156

## Cc1cc(N)nc(CCc2ccc3ccc(CCc4cc(C)nc(N)c4)cc3c2)c1
Nitric oxide synthase 1
  Ki: > 1 µM

## Cc1cc(CCc2cccc(CCc3cc(C)nc(N)c3)c2)cc(N)n1
Nitric oxide synthase 1
  Ki: > 1 µM

## Cc1cc(N)nc(CCc2ccc(CCc3cc(C)cc(N)n3)cc2)c1
[2]
  Ratio Ki: 24.8
[3]
  Ratio Ki: 24.6

## Cc1cc(N)nc(CCc2cccc(CCc3cc(C)nc(N)c3)c2)c1
[2]
  Ratio Ki: 71.8
[3]
  Ratio Ki: 111

## Cc1cc(N)nc(CCc2ccc3ccc(CCc4cc(C)cc(N)n4)cc3c2)c1
[2]
  Ratio Ki: 20.1
[3]
  Ratio Ki: 14.9

## Cc1cc(N)nc(CCc2cccc(CCc3cc(C)cc(N)n3)n2)c1
[2]
  Ratio Ki: 48
[3]
  Ratio Ki: 95

## Cc1cc(N)nc(CCc2ccc3cc(CCc4cc(C)cc(N)n4)ccc3c2)c1
[2]
  Ratio Ki: 9.42
[3]
  Ratio Ki: 7.22

## Cc1cc(C)nc(NCc2ccc3cc(CNc4cc(C)cc(C)n4)ccc3c2)c1
Nitric oxide synthase 1
  Ki: > 1 µM

## Cc1cc(N)nc(CCc2cc(N)cc(CCc3cc(C)cc(N)n3)c2)c1
[1]
  Ki: 3.4 µM
Nitric oxide synthase 1
  Ki: 0.085 µM
[2]
  Ratio Ki: 40
[3]
  Ratio Ki: 58
Nitric oxide synthase 3
  Ki: 4.95 µM
